The values below come from patent publication US20150126534A1, “ENZYME AND RECEPTOR MODULATION” (Chroma Therapeutics Ltd, priority 2005, published 2015).

Data set [1] deals with U937 cells (monocytic cell line). Kind of data set: Cell proliferation inhibition assay (WST-1), U937. The format is cell-based. To be noted: for IC50: Homo sapiens, U-937, read-out: Cell proliferation IC50 nM (U937 cells); for selectivity between a monocytic and non-monocytic cell line (cell proliferation): U937 versus HCT116. The procedure:
(§1) Following 24 h of growth cells were treated with compound. Plates were then re-incubated for a further 72-96 h before a WST-1 cell viability assay was conducted according to the suppliers (Roche Applied Science) instructions.
(§2) Data were expressed as a percentage inhibition of the control, measured in the absence of inhibitor, as follows: —
(§3) where S^i is the signal in the presence of inhibitor and S^o is the signal in the presence of DMSO.
(§4) Dose response curves were generated from 8 concentrations (top final concentration 10 μM, with 3-fold dilutions), using 6 replicates.

Data set [2] relates to HCT116 (non-monocytic cell line). Kind of data set: Cell proliferation inhibition assay (WST-1), HCT116. It counts as cell-based. The note with it: for Ratio IC50 cell/enzyme: HCT116 cell proliferation IC50 / DHFR enzyme IC50; for IC50: Homo sapiens, HCT-116, HCT116 non-monocytic cell line, read-out: Cell proliferation IC50 nM (HCT116). The protocol:
as §1, §2, §3, §4
In general terms: Tetrazolium assays rely on reduction of a dye to a coloured formazan, in cell work by metabolically active cells.

For data set [3], the system named is carboxylesterase (U937 cell extract). As to the kind of experiment: Broken cell carboxylesterase assay, U937 cell extract. The format is in vitro ADME. The note with it: U937 versus HCT116. The procedure: U937 or HCT 116 tumour cells (˜10^9) were washed in 4 volumes of Dulbeccos PBS (˜1 litre) and pelleted at 525 g for 10 min at 4° C. This was repeated twice and the final cell pellet was resuspended in 35 ml of cold homogenising buffer (Trizma 10 mM, NaCl 130 mM, CaCl2 0.5 mM pH 7.0 at 25° C.). Homogenates were prepared by nitrogen cavitation (700 psi for 50 min at 4° C.). The homogenate was kept on ice and supplemented with a cocktail of inhibitors at final concentrations of: • Leupeptin 1 μM • Aprotinin 0.1 μM • E64 8 μM • Pepstatin 1.5 μM • Bestatin 162 μM • Chymostatin 33 μM
After clarification of the cell homogenate by centrifugation at 525 g for 10 min, the resulting supernatant was used as a source of esterase activity and was stored at −80° C. until required.
Hydrolysis of esters to the corresponding carboxylic acids can be measured using the cell extract, prepared as above. To this effect cell extract (˜30 μg/total assay volume of 0.5 ml) was incubated at 37° C. in a Tris-HCl 25 mM, 125 mM NaCl buffer, pH 7.5 at 25° C. At zero time the ester (substrate) was then added at a final concentration of 2.5 μM and the samples were incubated at 37° C. for the appropriate time (usually 0 or 80 min). […] After centrifugation at 12000 g for 5 min, samples were analysed for the ester and its corresponding carboxylic acid at room temperature by LCMS (Sciex API 3000, HP1100 binary pump, CTC PAL). […]

The subject of data set [4] is HDAC - Hela cell nuclear extract. Kind of data set: Histone deacetylase inhibitory activity assay (Fluor de Lys). To be noted: read-out: Enzyme inhibition IC50 nM (HDAC - Hela cell nuclear extract). It counts as biochemical. The protocol: The ability of compounds to inhibit histone deacetylase activities was measured using the commercially available HDAC fluorescent activity assay from Biomol. […] Histone deacetylase activity from crude nuclear extract derived from HeLa cells was used for screening. The preparation, purchased from 4C (Seneffe, Belgium), was prepared from HeLa cells harvested whilst in exponential growth phase. […] Acid. […] The final buffer composition was 20 mM Hepes, 100 mM KCl, 0.2 mM EDTA, 0.5 mM DTT, 0.2 mM PMSF and 20% (v/v) glycerol.

The next data set addresses T1, PI 3-kinase γ (Homo sapiens, UniProt P48736).
T1 construct: recombinant N-terminally His6-tagged, full length human enzyme; His6 (N); purchased Upstate (Dundee, UK), assay run by the vendor; host or cells: baculovirus / Sf21 insect cells
Kind of data set: PI 3-kinase γ inhibition assay (HTRF). It counts as biochemical. To be noted: 100 μM MgATP; read-out: Enzyme inhibition IC50 nM (PI3-Kinase). An excerpt: The measurement of PI 3-kinase γ activity is dependent upon the specific and high affinity binding of the GRP1 pleckstrin homology (PH) domain to PIP3, the product of PI 3-kinase activity. A complex is formed between europium-labelled anti-GST monoclonal antibody, a GST-tagged GRP1 PH domain, biotinylated PIP3 and streptavidin-allophycocyanin (APC). This complex generates a stable time-resolved fluorescence resonance energy transfer (FRET) signal, which is diminished by competition of PIP3, generated in the PI 3-kinase assay, with the biotinylated PIPS.
The reaction was initiated by the addition of the MgATP mix. After incubation for 30 minutes at room temperature, the reaction was stopped by the addition of 5 μl of stop solution containing EDTA and biotinylated phosphatidylinositol-3,4,5-trisphosphate. Finally, 5 μl of detection buffer was added, which contained europium-labelled anti-GST monoclonal antibody, GST-tagged GRP1 PH domain and streptavidin-APC. The plate was then read in time-resolved fluorescence mode and the homogenous time-resolved fluorescence (HTRF) signal was determined according to the formula HTRF=10000×(Em665 nm/Em620 nm).
Duplicate data points were generated from a ½ log dilution series of a stock solution of compound in DMSO. Nine dilutions steps were made from a top final concentration of 10 μM, and a ‘no compound’ blank was included. HTRF ratio data were transformed into % activity of controls and analysed with a four parameter sigmoidal dose-response (variable slope) application. The concentration giving 50% inhibition (1050) was determined.

In data set [5] the test system is TNFα production in human whole blood. As to the kind of experiment: LPS-stimulation of human whole blood, TNF-α ELISA. It counts as cell-based. The note with it: for IC50: Homo sapiens, LPS 100 ng/ml, 6 h, read-out: Inhibition of TNFα production in human whole blood IC50; for Ratio IC50 WB/enzyme: whole blood TNFα IC50 / PI3-Kinase IC50. The procedure: Whole blood was taken by venous puncture using heparinised vacutainers (Becton Dickinson) and diluted in an equal volume of RPMI1640 tissue culture media. 100 μl was plated in V-bottomed 96 well tissue culture plates. Inhibitor was added in 100 μl of RPMI1640 media, and 2 h later the blood was stimulated with LPS (E coli strain 005:B5, Sigma) at a final concentration of 100 ng/ml and incubated at 37° C. in 5% CO2 for 6 h. TNF-α levels were measured from cell-free supernatants by sandwich ELISA (R&D Systems #QTA00B).
For orientation: An ELISA detects its analyte on a solid surface through an enzyme-linked reagent.

Where [6] appears, read: U937 cell proliferation IC50 / DHFR enzyme IC50.

T1 sequence (P48736 whole entry): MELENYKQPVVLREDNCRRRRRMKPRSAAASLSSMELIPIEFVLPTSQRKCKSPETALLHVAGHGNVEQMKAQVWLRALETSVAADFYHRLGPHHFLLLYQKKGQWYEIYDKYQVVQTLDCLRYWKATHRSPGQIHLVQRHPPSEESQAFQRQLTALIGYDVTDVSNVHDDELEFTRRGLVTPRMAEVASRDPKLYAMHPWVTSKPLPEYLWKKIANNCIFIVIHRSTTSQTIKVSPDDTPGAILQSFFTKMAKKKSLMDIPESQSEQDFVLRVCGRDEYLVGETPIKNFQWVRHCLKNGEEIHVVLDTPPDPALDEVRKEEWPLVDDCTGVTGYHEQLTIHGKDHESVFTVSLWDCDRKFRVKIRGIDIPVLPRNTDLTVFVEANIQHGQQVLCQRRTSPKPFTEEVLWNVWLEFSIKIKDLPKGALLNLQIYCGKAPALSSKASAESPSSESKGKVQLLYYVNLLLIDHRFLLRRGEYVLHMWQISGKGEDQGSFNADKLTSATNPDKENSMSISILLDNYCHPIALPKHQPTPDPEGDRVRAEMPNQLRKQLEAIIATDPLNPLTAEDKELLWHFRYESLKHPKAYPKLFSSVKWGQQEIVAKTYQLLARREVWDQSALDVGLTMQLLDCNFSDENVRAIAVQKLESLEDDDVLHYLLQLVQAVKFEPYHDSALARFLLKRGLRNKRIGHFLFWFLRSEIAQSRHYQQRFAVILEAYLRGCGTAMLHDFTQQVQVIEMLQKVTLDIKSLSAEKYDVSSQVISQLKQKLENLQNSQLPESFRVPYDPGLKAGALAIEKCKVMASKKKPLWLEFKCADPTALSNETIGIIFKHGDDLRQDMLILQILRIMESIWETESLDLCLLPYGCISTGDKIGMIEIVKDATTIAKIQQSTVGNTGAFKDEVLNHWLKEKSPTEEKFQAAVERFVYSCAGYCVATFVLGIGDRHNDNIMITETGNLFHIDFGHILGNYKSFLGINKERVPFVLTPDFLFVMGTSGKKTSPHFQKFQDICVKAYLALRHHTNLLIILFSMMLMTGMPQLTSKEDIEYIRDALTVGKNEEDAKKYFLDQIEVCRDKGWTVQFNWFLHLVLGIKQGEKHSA

With `Cc1c(CNc2ccc(OCC[C@H](NC3CCCCC3)C(=O)OC3CCCC3)cc2)cnc2nc(N)nc(N)c12` [Compound 4, (S)-2-Cyclohexylamino-4-{4-[(2,4-diamino-5-methyl-pyrido[2,3-d]pyrimidin-6-ylmethyl)-amino]-phenoxy}-butyric acid cyclopentyl ester], the figures for the IC50 in data set [1] (U937 monocytic cell line) and in data set [2] were 310 nM and 6900 nM, respectively. Moreover, the “Ratio IC50 cell/enzyme” value in data set [1] (setting [6]) was determined as 0.3; in data set [2], 6.6. Further, the “selectivity between a monocytic and non-monocytic cell line (cell proliferation)” value in data set [1] is recorded as “significantly more anti-proliferative in monocytic cell lines then non-monocytic cell lines”. Besides, the “cleavage of ester in monocytic versus non-monocytic cell lines” value in data set [3] is on record as “selective cleavage in monocytic but not non-monocytic cell lines”.
For `Cc1c(CNc2ccc(CN[C@@H](CC(C)C)C(=O)OC3CCCC3)cc2)cnc2nc(N)nc(N)c12` [Compound 5, (S)-2-{4-[(2,4-Diamino-5-methyl-pyrido[2,3-d]pyrimidin-6-ylmethyl)-amino]-benzylamino}-4-methyl-pentanoic acid cyclopentyl ester], the IC50 was 310 nM in data set [1] (U937 monocytic cell line) and 6700 nM in data set [2]. Further, the “Ratio IC50 cell/enzyme” value in data set [1] (setting [6]) was determined as 0.8; in data set [2] it was 1.7. Moreover, the “selectivity between a monocytic and non-monocytic cell line (cell proliferation)” value in data set [1] is recorded as “significantly more anti-proliferative in monocytic cell lines then non-monocytic cell lines”. In addition, the “cleavage of ester in monocytic versus non-monocytic cell lines” value in data set [3] is “selective cleavage in monocytic but not non-monocytic cell lines”.
`O=C(CCCCCCC(=O)Nc1cccc(CN[C@H](C(=O)OC2CCCC2)c2ccccc2)c1)NO` [Compound 8, (S)-[3-(7-Hydroxycarbamoyl-heptanoylamino)-benzylamino]-phenyl-acetic acid cyclopentyl ester]: the figures for the IC50 in data set [4] and in data set [1] (U937 monocytic cell line) were 100 nM and 50 nM, respectively. Further, in data set [1] (U937 cell proliferation IC50 / HDAC enzyme IC50), the “Ratio IC50 cell/enzyme” value came to 0.5.
With `O=C(CCCCCCC(=O)Nc1cccc(CN[C@H](C(=O)O)c2ccccc2)c1)NO` [Compound 9, (S)-[3-(7-Hydroxycarbamoyl-heptanoylamino)-benzylamino]-phenyl-acetic acid], the IC50 in data set [4] stood at 70 nM. The “Cell proliferation IC50 nM (U937 cells)” value in data set [1] (U937 monocytic cell line) was “Inactive”.
In the case of `CC(=O)Nc1nc(C)c(-c2ccc(Cl)c(S(C)(=O)=O)c2)s1` [Compound 20, N-[5-(4-Chloro-3-methanesulfonyl-phenyl)-4-methyl-thiazol-2-yl]-acetamide, reference compound], on PI 3-kinase γ, the IC50 amounted to 500 nM. In data set [5], the IC50 was determined as 8500 nM and the “Ratio IC50 WB/enzyme” value is 17.
Turning to `Cc1nc(NC(=O)CC[C@H](N)C(=O)OC2CCCC2)sc1-c1ccc(Cl)c(S(C)(=O)=O)c1` [Compound 21, (S)-2-Amino-4-[5-(4-chloro-3-methanesulfonyl-phenyl)-4-methyl-thiazol-2-ylcarbamoyl]-butyric acid cyclopentyl ester], the IC50 on PI 3-kinase γ stood at 2700 nM. In addition, in data set [5], the IC50 was 400 nM and the “Ratio IC50 WB/enzyme” value came to 0.15.
Consider `Cc1nc(NC(=O)CC[C@H](N)C(=O)O)sc1-c1ccc(Cl)c(S(C)(=O)=O)c1` [Compound 22, (S)-2-Amino-4-[5-(4-chloro-3-methanesulfonyl-phenyl)-4-methyl-thiazol-2-ylcarbamoyl]-butyric acid], for which, at PI 3-kinase γ, the IC50 worked out at 3600 nM.
As for `Cc1nc(NC(=O)CC[C@H](N)C(=O)OC(C)(C)C)sc1-c1ccc(Cl)c(S(C)(=O)=O)c1` [Compound 23, (S)-2-Amino-4-[5-(4-chloro-3-methanesulfonyl-phenyl)-4-methyl-thiazol-2-ylcarbamoyl]-butyric acid tert-butyl ester], on PI 3-kinase γ, the IC50 was 7100 nM. For the same molecule, in data set [5], the IC50 is 5200 nM and the “Ratio IC50 WB/enzyme” value was determined as 0.75.
